Data on 121 molecules can be found in a melting point compilation (Tetko et al.).

In turn, `O=S(=O)(Nc1cccc(Cl)c1)c1ccc2oc(S)nc2c1` yielded a melting point of 173 to 175 °C.

`Cn1c(Cl)nc2ccccc2c1=O`: the melting point lay in the range of 109 to 111 °C.

Molecule `O=C1OC(=O)c2cc(F)c(F)cc21` had a melting point of 94 to 96 °C.

On to `O=C(NC1CCN(Cc2ccccc2)CC1)c1cccc(F)c1`, for which the melting point was in the range of 143 to 145 °C.

As to `O=C(O)c1cc2c(s1)CCCC2`, the melting point fell in the range of 179 to 181 °C.

Molecule `O=C(O)Cc1csc(-c2c(Cl)cccc2Cl)n1` yielded a melting point of 142 to 144 °C.

Take `COc1ccccc1CC(C)(C)C(=O)O`: the melting point was in the range of 44 to 46 °C.

Consider `COc1ccc(CNC(=O)c2c[nH]nc2N)cc1`, for which the melting point fell in the range of 196 to 198 °C.

In turn, `Sc1nnc(-c2ccccc2)n1Cc1ccc2c(c1)OCO2` displayed a melting point of 118 to 120 °C.

As to `N#Cc1ccccc1CN1CCCC1C(N)=O` (stereo unspecified), the melting point is 88 to 90 °C.

In the case of `CC(C)C(NC(=O)Nc1ccccc1)C(=O)O` (stereo unspecified), the melting point lay within 140 to 142 °C.

The molecule `CS(=O)(=O)c1ccc(F)cc1[N+](=O)[O-]` showed a melting point of 148 to 150 °C.

Consider `O=[N+]([O-])c1ccc(Cl)c(S(=O)(=O)N2CCOCC2)c1`, for which the melting point lay within 149 to 151 °C.

Consider `COc1cc2c(c(OC)c1)C(=O)C(=O)N2`, for which the melting point was in the range of 289 to 291 °C.

For the molecule `O=C(CCl)c1ccc(Br)cc1`, the melting point lay in the range of 119 to 121 °C.

Take `CCCS(=O)(=O)Nc1cccc(N)c1`: the melting point lay in the range of 63 to 65 °C.

In the case of `O=C(O)C(Oc1ccc(Br)cc1F)c1ccccc1` (stereo unspecified), the melting point is 104 to 106 °C.

With `CC(C)(C)C(=O)N1CCCC(C(=O)O)C1` (stereo unspecified), the melting point was in the range of 179 to 181 °C.

For the molecule `Cc1ccc(N)cc1N1CCCS1(=O)=O`, the melting point is 128 to 130 °C.

`Cc1n[nH]c(C(N)=O)n1` came in with a melting point of 222 to 224 °C.

With `CC(C)(C)OC(=O)c1ccc(C#N)cc1`, the melting point lay in the range of 74 to 76 °C.

For the molecule `CCN(CC)Cc1nc(Cl)c2c(C)c(C)sc2n1`, the melting point fell in the range of 30 to 32 °C.

`CN(C)C(=O)Nc1ccc(Cl)c(C(=O)O)c1`: the melting point lay in the range of 214 to 216 °C.

Regarding `Cc1ccc(NS(=O)(=O)c2ccsc2C(=O)O)cc1`, the melting point lay in the range of 192 to 194 °C.

The molecule `CNC1CCN(c2cc(OC)cc(OC)c2)C1` (stereo unspecified) returned a melting point of 52 to 54 °C.

In turn, `O=C(O)c1cc2ccccc2cc1I` yielded a melting point of 215 to 217 °C.

Molecule `Cc1cc(N)nc(S)n1` yielded a melting point of 295 to 297 °C.

In turn, `OCc1nc2cccnc2[nH]1` came in with a melting point of 210 to 212 °C.

Consider `Oc1cccc(Oc2cccnc2)c1`, for which the melting point lay in the range of 109 to 111 °C.

For `O=c1[nH]c(S)nc2sccc12`, the melting point was 315 to 317 °C.

Turning to `O=c1ccc(S(=O)(=O)c2ccccc2)n[nH]1`, the melting point lay in the range of 182 to 184 °C.

Consider `COc1ccc(N)cc1-n1nnnc1C1CC1`, for which the melting point is 161 to 163 °C.

`Cc1nc2sc3c(c2c(=O)n1N)CCCCC3` gave a melting point of 199 to 201 °C.

In turn, `O=C(NCc1ccc(Cl)cc1)n1ccnc1` displayed a melting point of 94 to 96 °C.

`CC(=O)N1CCN(c2cc(C#N)ccn2)CC1` yielded a melting point of 107 to 109 °C.

Turning to `COC(=O)c1cccc(C(N)=NO)c1`, the melting point lay within 102 to 104 °C.

As to `O=C(c1ccccc1)c1ccccc1Br`, the melting point lay within 72 to 74 °C.

`Cc1ccc2[nH]cc(CCC(=O)O)c2c1` registered a melting point of 126 to 128 °C.

`ClCc1cc(Cl)c2c(c1)OCCCO2` registered a melting point of 59 to 63 °C.

Molecule `Cc1cc(C(=O)O)c(F)cc1F` displayed a melting point of 159 to 161 °C.

Consider `N#CCC(=O)c1c[nH]c2cc(F)ccc12`, for which the melting point lay within 265 to 267 °C.

With `O=C(O)c1ccc([N+](=O)[O-])cc1I`, the melting point is 139 to 141 °C.

In the case of `O=C(O)c1cn(-c2ccccc2)nc1-c1ccncc1`, the melting point lay in the range of 235 to 237 °C.

On to `CNC(C(=O)O)c1cc(F)ccc1F` (stereo unspecified), for which the melting point is 239 to 241 °C.

In turn, `NNC(=O)c1cc(-c2ccncc2)nc2ccccc12` came in with a melting point of 226 to 228 °C.

In turn, `Nc1cnn(CC(=O)Nc2cccnc2)c1` returned a melting point of 117 to 119 °C.

Turning to `N#CCc1csc(-c2ccccc2)n1`, the melting point fell in the range of 57 to 59 °C.

The molecule `NC(=O)COc1ccc(Cl)cc1S(=O)(=O)Cl` displayed a melting point of 143 to 145 °C.

`CC(=O)c1ccc(Cl)c(N)c1`: the melting point is 103 to 105 °C.

`Cc1cc(O)cc(=O)n1C(C)C(=O)O` (stereo unspecified) gave a melting point of 258 to 260 °C.

`O=C(O)CCSc1ccnc2cc(Cl)ccc12` came in with a melting point of 209 to 211 °C.

Regarding `CC(C)C(NC(=O)OC(C)(C)C)C(N)=NO` (stereo unspecified), the melting point fell in the range of 182 to 184 °C.

Molecule `COc1ccc(CCCC(=O)O)c(OC)c1` registered a melting point of 46 to 48 °C.

For the molecule `CCOC(=O)c1csc(NC)n1`, the melting point is 115 to 117 °C.

`C#CCNS(C)(=O)=O` displayed a melting point of 56 to 58 °C.

Take `NC(=O)Cc1cccc(O)c1`: the melting point was 114 to 116 °C.

In turn, `NC(=O)C1(O)Cc2ccccc2C1` showed a melting point of 186 to 188 °C.

`NC1CCCC(C(=O)NC2CC2)C1` (stereo unspecified): the melting point is 97 to 99 °C.

Turning to `Cc1ccc(Cl)c2c1C(=O)C(=O)N2`, the melting point lay in the range of 209 to 211 °C.

`Cc1nc2c(cnn2-c2cccc(Cl)c2)c(=O)[nH]1` yielded a melting point of 114 to 116 °C.

`O=C(CCCc1ccccc1)Cc1ccc(Cl)cc1`: the melting point was 31 to 33 °C.

In turn, `Nn1c(S)nnc1Cc1ccc(F)cc1` gave a melting point of 203 to 205 °C.

`Cc1cnn(-c2ccccc2)c1N` showed a melting point of 79 to 81 °C.

Molecule `CNCc1c(Cl)ncnc1N(C)C` yielded a melting point of 43 to 45 °C.

As to `CC(C)(C#N)Nc1ccccc1`, the melting point lay within 89 to 91 °C.

`CC(C)(C)OC(=O)N1CCc2n[nH]c(=O)cc2C1` displayed a melting point of 187 to 189 °C.

Consider `Cc1cc(C(=O)O)c(C)n1-c1ccc(C#N)cc1`, for which the melting point is 249 to 251 °C.

On to `O=C1CCC2(C(=O)O)Sc3ccccc3N12` (stereo unspecified), for which the melting point was in the range of 225 to 227 °C.

Take `O=C(O)C1C2CCCC21` (stereo unspecified): the melting point fell in the range of 34 to 36 °C.

The molecule `CS(=O)(=O)NC1CCCNC1` (stereo unspecified) had a melting point of 123 to 125 °C.

The molecule `NCc1ccc(N2CCNC(=O)C2)cc1` returned a melting point of 189 to 191 °C.

In turn, `Cn1cc(Nc2cccc(N)c2)cn1` had a melting point of 92 to 94 °C.

In turn, `O=C1C=CC(=O)N1C1CCOCC1` had a melting point of 169 to 171 °C.

Consider `CCn1cc(S(N)(=O)=O)cn1`, for which the melting point lay in the range of 86 to 88 °C.

Regarding `CN(c1ccc(CN)cc1)S(C)(=O)=O`, the melting point was in the range of 46 to 48 °C.

Turning to `O=C1CCc2cc(C(=O)CCl)c(F)cc2N1`, the melting point lay in the range of 257 to 259 °C.

In the case of `CCCc1ncc(C(=O)O)s1`, the melting point fell in the range of 135 to 137 °C.

Turning to `COc1cccc(-n2c(S)nc(O)cc2=O)c1`, the melting point is 197 to 199 °C.

The molecule `CC(C)(C)OC(=O)Nc1ccc(CC(=O)N2CCNCC2)cc1` yielded a melting point of 169 to 171 °C.

Take `CNS(=O)(=O)c1ccc(N)cc1`: the melting point lay in the range of 110 to 112 °C.

For `CC1CCc2sc(C(=O)O)cc2C1` (stereo unspecified), the melting point lay within 132 to 136 °C.

Molecule `Nc1ccc(S(F)(F)(F)(F)F)cc1Br` showed a melting point of 58 to 60 °C.

`COc1cc(CCl)c(OC)cc1Br` yielded a melting point of 65 to 67 °C.

The molecule `NCC(O)c1cccc(F)c1` (stereo unspecified) gave a melting point of 42 to 44 °C.

Take `CC(C)Nc1ccc(Br)cc1[N+](=O)[O-]`: the melting point was in the range of 97 to 99 °C.

Regarding `CC(C)=CC(=O)NCc1ccc(C(=O)O)cc1`, the melting point lay within 187 to 189 °C.

`CNc1cc(-c2ccccc2)[nH]n1` displayed a melting point of 122 to 124 °C.

In turn, `CCCCCC(=O)Nc1ccc(C(=O)CCl)cc1` came in with a melting point of 179 to 181 °C.

As for `CC(=O)NC1CCC(N)CC1` (stereo unspecified), the melting point lay in the range of 129 to 131 °C.

As for `CC(C)(C)OC(=O)N1CCc2ccc(O)cc2C1`, the melting point was 134 to 136 °C.

Take `FC(F)Oc1ccc(CNC23CC4CC(CC(C4)C2)C3)cc1`: the melting point lay in the range of 283 to 285 °C.

With `CC1CNC(=O)N(c2ccccc2)C1=O` (stereo unspecified), the melting point lay in the range of 174 to 176 °C.

In turn, `O=C(O)[C@H](Cc1ccccc1)N1C(=O)c2ccccc2C1=O` came in with a melting point of 179 to 181 °C.

Turning to `O=C(O)CCc1ncc(-c2ccco2)o1`, the melting point was in the range of 140 to 142 °C.

In turn, `CC(=O)CC(=O)Nc1ccc(C(C)C)cc1` registered a melting point of 68 to 70 °C.

`CN(c1ccccc1N)S(C)(=O)=O` showed a melting point of 138 to 140 °C.

Take `Cc1c(S(=O)(=O)Cl)cnn1-c1ccc(Cl)cc1`: the melting point fell in the range of 119 to 121 °C.

In turn, `CC(C)Cn1c(S)nc2cc(Cl)ccc2c1=O` gave a melting point of 221 to 223 °C.

Turning to `CCC1=NN(C)C(=O)C1`, the melting point was in the range of 89 to 91 °C.

In the case of `O=C(Cc1nc2ccccc2s1)c1ccccc1`, the melting point is 113 to 115 °C.

Regarding `Nc1ccc2c[nH]nc2c1`, the melting point is 204 to 206 °C.

Turning to `COC(=O)N1CCc2ccccc21`, the melting point is 72 to 74 °C.

In the case of `COc1cccc(CC(NC(C)=O)C(=O)O)c1` (stereo unspecified), the melting point lay within 148 to 150 °C.

`CCn1nccc1C=CC(=O)O`: the melting point was in the range of 151 to 153 °C.

`Cc1cc(C(=O)C(C)Cl)c(C)n1-c1ccc(Cl)cc1` (stereo unspecified) came in with a melting point of 107 to 111 °C.

`O=C1NCCN1c1ccccc1[N+](=O)[O-]`: the melting point lay within 153 to 155 °C.

Consider `Cc1ccc(N)c(C)c1O`, for which the melting point lay within 102 to 104 °C.

On to `COc1ccc(S(=O)(=O)N(C)C)cc1NC(=O)C(C)Cl` (stereo unspecified), for which the melting point lay in the range of 107 to 109 °C.

`Cc1cc(C)n2c(C=O)cnc2n1` displayed a melting point of 169 to 171 °C.

`CCOC(=O)CCc1nc(CC(=O)NC)no1` yielded a melting point of 84 to 86 °C.

Turning to `CC(C)c1noc2nc(C3CC3)cc(C(=O)O)c12`, the melting point lay within 178 to 180 °C.

Molecule `ClCc1cc(Cl)c2c(c1)OCCO2` gave a melting point of 59 to 61 °C.

`CCCCN1Cc2ccc(N)cc2C1` came in with a melting point of 62 to 64 °C.

Consider `CC(C)(C)OC(=O)NCc1cccc(C(N)=S)c1`, for which the melting point was in the range of 105 to 107 °C.

`COC(=O)C(N)Cc1c[nH]c2ccc(Br)cc12` (stereo unspecified) yielded a melting point of 119 to 121 °C.

For `CCS(=O)(=O)Nc1nc2ccc(N)cc2s1`, the melting point fell in the range of 217 to 219 °C.

Molecule `CCS(=O)(=O)c1ccc2oc(S)nc2c1` registered a melting point of 188 to 190 °C.

As to `O=C(CCl)Nc1ccncc1`, the melting point is 295 to 297 °C.

Molecule `Nc1ccc(Cl)c(S(=O)(=O)N2CCCCC2)c1` had a melting point of 92 to 96 °C.

Turning to `O=C(O)c1cn(-c2ccccc2Cl)nn1`, the melting point lay in the range of 133 to 135 °C.

On to `Cc1ccc(S(=O)(=O)N2CCCC(C(=O)O)C2)cc1` (stereo unspecified), for which the melting point is 149 to 151 °C.
